# Results reported in PubChem BioAssay (NCI).
#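 Compound exposure: 48 hours, 5 concentrations, 96-well plates. TGI marks complete inhibition of growth.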
# Tests used:
# Assay in all cases: DTP human tumour cell line panel, 48 h
# MALME-3M melanoma = test system: MALME-3M melanoma
# OVCAR-3 ovarian = test system: OVCAR-3 ovarian
# NCI/ADR-RES ovarian = test system: NCI/ADR-RES ovarian
# SK-MEL-5 melanoma = test system: SK-MEL-5 melanoma
# OVCAR-8 ovarian = test system: OVCAR-8 ovarian
# MDA-N = test system: MDA-N
# K-562 leukemia = test system: K-562 leukemia
# M14 melanoma = test system: M14 melanoma
# UO-31 renal = test system: UO-31 renal
# SK-MEL-2 melanoma = test system: SK-MEL-2 melanoma
# BT-549 breast = test system: BT-549 breast
# MDA-MB-231 breast = test system: MDA-MB-231 breast
# SF-539 CNS = test system: SF-539 CNS
# IGROV1 ovarian = test system: IGROV1 ovarian
# SK-MEL-28 melanoma = test system: SK-MEL-28 melanoma
# HL-60(TB) leukemia = test system: HL-60(TB) leukemia
# SNB-75 CNS = test system: SNB-75 CNS
# SK-OV-3 ovarian = test system: SK-OV-3 ovarian
# RPMI-8226 leukemia = test system: RPMI-8226 leukemia
# CAKI-1 renal = test system: CAKI-1 renal
# A549 NSCLC = test system: A549 NSCLC
# TK-10 renal = test system: TK-10 renal
# ACHN renal = test system: ACHN renal
# UACC-257 melanoma = test system: UACC-257 melanoma
# HOP-92 NSCLC = test system: HOP-92 NSCLC
# OVCAR-5 ovarian = test system: OVCAR-5 ovarian
# HCT-15 colon = test system: HCT-15 colon
# DU-145 prostate = test system: DU-145 prostate
# OVCAR-4 ovarian = test system: OVCAR-4 ovarian
# HOP-62 NSCLC = test system: HOP-62 NSCLC
# EKVX NSCLC = test system: EKVX NSCLC
# PC-3 prostate = test system: PC-3 prostate
# CCRF-CEM leukemia = test system: CCRF-CEM leukemia
# KM12 colon = test system: KM12 colon
# T-47D breast = test system: T-47D breast
# MDA-MB-435 = test system: MDA-MB-435
# SF-268 CNS = test system: SF-268 CNS
# HS 578T breast = test system: HS 578T breast
# SN12C renal = test system: SN12C renal
# HCC-2998 colon = test system: HCC-2998 colon
# U251 CNS = test system: U251 CNS
# NCI-H226 lung = test system: NCI-H226 lung
# A498 renal = test system: A498 renal
# SNB-19 CNS = test system: SNB-19 CNS
# COLO 205 colon = test system: COLO 205 colon
# NCI-H23 lung = test system: NCI-H23 lung
# HT29 colon = test system: HT29 colon
# SR leukemia = test system: SR leukemia
# RXF 393 renal = test system: RXF 393 renal
# MCF7 breast = test system: MCF7 breast
# SF-295 CNS = test system: SF-295 CNS
# 786-0 renal = test system: 786-0 renal
# HCT-116 colon = test system: HCT-116 colon
# NCI-H460 lung = test system: NCI-H460 lung
# UACC-62 melanoma = test system: UACC-62 melanoma
# MOLT-4 leukemia = test system: MOLT-4 leukemia
# SW-620 colon = test system: SW-620 colon
# NCI-H522 lung = test system: NCI-H522 lung
# LOX IMVI melanoma = test system: LOX IMVI melanoma
smiles,measurement,setting,value
O=C(NCCCNCCCNC(=O)c1cc(-c2ccccc2)nc2ccccc12)c1cc(-c2ccccc2)nc2ccccc12,TGI,MALME-3M melanoma,3.5 µM
same,TGI,OVCAR-3 ovarian,3.23 µM
same,TGI,NCI/ADR-RES ovarian,4.13 µM
same,TGI,SK-MEL-5 melanoma,3.45 µM
same,TGI,OVCAR-8 ovarian,> 100 µM
same,TGI,MDA-N,3.13 µM
same,TGI,K-562 leukemia,3.53 µM
same,TGI,M14 melanoma,3.19 µM
same,TGI,UO-31 renal,3.38 µM
same,TGI,SK-MEL-2 melanoma,3.55 µM
same,TGI,BT-549 breast,> 23.7 µM
same,TGI,MDA-MB-231 breast,3.14 µM
same,TGI,SF-539 CNS,> 100 µM
same,TGI,IGROV1 ovarian,3.19 µM
same,TGI,SK-MEL-28 melanoma,3.09 µM
same,TGI,HL-60(TB) leukemia,3.16 µM
same,TGI,SNB-75 CNS,2.96 µM
same,TGI,SK-OV-3 ovarian,4.95 µM
same,TGI,RPMI-8226 leukemia,4.78 µM
same,TGI,CAKI-1 renal,3.7 µM
same,TGI,A549 NSCLC,3.34 µM
same,TGI,TK-10 renal,3.22 µM
same,TGI,ACHN renal,3.2 µM
same,TGI,UACC-257 melanoma,3.73 µM
same,TGI,HOP-92 NSCLC,4.17 µM
same,TGI,OVCAR-5 ovarian,3.53 µM
same,TGI,HCT-15 colon,> 100 µM
same,TGI,DU-145 prostate,3.08 µM
same,TGI,OVCAR-4 ovarian,3.32 µM
same,TGI,HOP-62 NSCLC,2.16 µM
same,TGI,EKVX NSCLC,3.32 µM
same,TGI,PC-3 prostate,2.99 µM
CCCN1CCC(=O)N(CCC(F)(F)C(F)(F)C(F)(F)C(F)(F)C(F)(F)C(F)(F)F)C1=S,TGI,MALME-3M melanoma,> 100 µM
same,TGI,OVCAR-3 ovarian,> 100 µM
same,TGI,CCRF-CEM leukemia,> 100 µM
same,TGI,KM12 colon,> 100 µM
same,TGI,T-47D breast,> 100 µM
same,TGI,SK-MEL-5 melanoma,> 100 µM
same,TGI,OVCAR-8 ovarian,> 100 µM
same,TGI,MDA-N,> 100 µM
same,TGI,MDA-MB-435,> 100 µM
same,TGI,K-562 leukemia,> 100 µM
same,TGI,M14 melanoma,> 100 µM
same,TGI,SF-268 CNS,> 100 µM
same,TGI,UO-31 renal,> 100 µM
same,TGI,HS 578T breast,> 100 µM
same,TGI,SN12C renal,> 100 µM
same,TGI,BT-549 breast,> 100 µM
same,TGI,MDA-MB-231 breast,> 100 µM
same,TGI,SF-539 CNS,> 100 µM
same,TGI,HCC-2998 colon,> 100 µM
same,TGI,IGROV1 ovarian,> 100 µM
same,TGI,SK-MEL-28 melanoma,> 100 µM
same,TGI,HL-60(TB) leukemia,> 100 µM
same,TGI,SNB-75 CNS,> 100 µM
same,TGI,SK-OV-3 ovarian,> 100 µM
same,TGI,CAKI-1 renal,> 100 µM
same,TGI,A549 NSCLC,> 100 µM
same,TGI,U251 CNS,> 100 µM
same,TGI,TK-10 renal,> 100 µM
same,TGI,NCI-H226 lung,> 100 µM
same,TGI,ACHN renal,> 100 µM
same,TGI,UACC-257 melanoma,> 100 µM
same,TGI,HOP-92 NSCLC,> 100 µM
same,TGI,A498 renal,> 100 µM
same,TGI,SNB-19 CNS,> 100 µM
same,TGI,COLO 205 colon,> 100 µM
same,TGI,OVCAR-5 ovarian,> 100 µM
same,TGI,NCI-H23 lung,> 100 µM
same,TGI,HT29 colon,> 100 µM
same,TGI,SR leukemia,> 100 µM
same,TGI,RXF 393 renal,> 100 µM
same,TGI,DU-145 prostate,> 100 µM
same,TGI,MCF7 breast,> 100 µM
same,TGI,OVCAR-4 ovarian,> 100 µM
same,TGI,SF-295 CNS,> 100 µM
same,TGI,786-0 renal,> 100 µM
same,TGI,HCT-116 colon,> 100 µM
same,TGI,HOP-62 NSCLC,> 100 µM
same,TGI,EKVX NSCLC,> 100 µM
same,TGI,NCI-H460 lung,> 100 µM
same,TGI,UACC-62 melanoma,> 100 µM
same,TGI,PC-3 prostate,> 100 µM
same,TGI,MOLT-4 leukemia,> 100 µM
same,TGI,SW-620 colon,> 100 µM
same,TGI,NCI-H522 lung,> 100 µM
COc1cc(/C=C2/C[C@H]3[C@@H]4CC=C5C[C@@H](O)CC[C@]5(C)[C@H]4CC[C@]3(C)NC2=O)cc(OC)c1OC,TGI,MALME-3M melanoma,32.8 µM
same,TGI,OVCAR-3 ovarian,> 100 µM
same,TGI,CCRF-CEM leukemia,> 100 µM
same,TGI,NCI/ADR-RES ovarian,> 65.2 µM
same,TGI,KM12 colon,> 100 µM
same,TGI,T-47D breast,> 100 µM
same,TGI,SK-MEL-5 melanoma,> 47.5 µM
same,TGI,OVCAR-8 ovarian,> 70.8 µM
same,TGI,MDA-N,> 100 µM
same,TGI,MDA-MB-435,> 100 µM
same,TGI,K-562 leukemia,> 100 µM
same,TGI,M14 melanoma,> 100 µM
same,TGI,SF-268 CNS,23.4 µM
same,TGI,UO-31 renal,29.8 µM
same,TGI,SN12C renal,> 64.2 µM
same,TGI,SK-MEL-2 melanoma,> 62.9 µM
same,TGI,BT-549 breast,63 µM
same,TGI,MDA-MB-231 breast,> 55.7 µM
same,TGI,LOX IMVI melanoma,> 100 µM
same,TGI,SF-539 CNS,> 100 µM
same,TGI,HCC-2998 colon,25.8 µM
same,TGI,IGROV1 ovarian,38.1 µM
same,TGI,SK-MEL-28 melanoma,> 100 µM
same,TGI,HL-60(TB) leukemia,> 100 µM
same,TGI,SK-OV-3 ovarian,> 92.3 µM
same,TGI,RPMI-8226 leukemia,> 44.4 µM
same,TGI,CAKI-1 renal,> 59.9 µM
same,TGI,A549 NSCLC,> 100 µM
same,TGI,U251 CNS,> 60.1 µM
same,TGI,TK-10 renal,> 82.1 µM
same,TGI,NCI-H226 lung,> 58.5 µM
same,TGI,ACHN renal,58 µM
same,TGI,UACC-257 melanoma,> 71.5 µM
same,TGI,HOP-92 NSCLC,25 µM
same,TGI,A498 renal,55 µM
same,TGI,SNB-19 CNS,> 84.7 µM
same,TGI,COLO 205 colon,> 57.9 µM
same,TGI,OVCAR-5 ovarian,> 75.7 µM
same,TGI,NCI-H23 lung,> 62.7 µM
same,TGI,HT29 colon,> 80.7 µM
same,TGI,HCT-15 colon,> 59.5 µM
same,TGI,SR leukemia,> 100 µM
same,TGI,RXF 393 renal,42.3 µM
same,TGI,DU-145 prostate,23.4 µM
same,TGI,MCF7 breast,> 77.5 µM
same,TGI,OVCAR-4 ovarian,> 86.5 µM
same,TGI,SF-295 CNS,> 65.3 µM
same,TGI,786-0 renal,57.1 µM
same,TGI,HCT-116 colon,> 66.3 µM
same,TGI,HOP-62 NSCLC,> 89.1 µM
same,TGI,EKVX NSCLC,> 92.8 µM
same,TGI,NCI-H460 lung,25.9 µM
same,TGI,UACC-62 melanoma,75.4 µM
same,TGI,PC-3 prostate,79.4 µM
same,TGI,MOLT-4 leukemia,> 100 µM
same,TGI,SW-620 colon,> 100 µM
same,TGI,NCI-H522 lung,21.7 µM
Cc1nc(-c2cc3cc([N+](=O)[O-])ccc3oc2=O)cs1,TGI,CCRF-CEM leukemia,> 100 µM
same,TGI,KM12 colon,> 100 µM
same,TGI,T-47D breast,> 100 µM
same,TGI,SK-MEL-5 melanoma,> 100 µM
same,TGI,MDA-N,> 100 µM
same,TGI,MDA-MB-435,> 100 µM
same,TGI,K-562 leukemia,> 100 µM
same,TGI,M14 melanoma,> 100 µM
same,TGI,SF-268 CNS,> 100 µM
same,TGI,UO-31 renal,> 100 µM
same,TGI,HS 578T breast,> 100 µM
same,TGI,SN12C renal,> 100 µM
same,TGI,SK-MEL-2 melanoma,> 100 µM
same,TGI,BT-549 breast,> 100 µM
same,TGI,MDA-MB-231 breast,> 100 µM
same,TGI,LOX IMVI melanoma,> 100 µM
same,TGI,SF-539 CNS,> 100 µM
same,TGI,HCC-2998 colon,> 100 µM
same,TGI,IGROV1 ovarian,> 100 µM
same,TGI,SK-MEL-28 melanoma,> 100 µM
same,TGI,HL-60(TB) leukemia,> 100 µM
same,TGI,SNB-75 CNS,94.8 µM
same,TGI,SK-OV-3 ovarian,> 100 µM
same,TGI,RPMI-8226 leukemia,> 100 µM
same,TGI,CAKI-1 renal,> 100 µM
same,TGI,A549 NSCLC,> 100 µM
same,TGI,U251 CNS,> 100 µM
same,TGI,TK-10 renal,> 100 µM
same,TGI,NCI-H226 lung,> 100 µM
same,TGI,ACHN renal,> 100 µM
same,TGI,UACC-257 melanoma,> 100 µM
same,TGI,HOP-92 NSCLC,> 100 µM
same,TGI,SNB-19 CNS,> 100 µM
same,TGI,COLO 205 colon,> 100 µM
same,TGI,OVCAR-5 ovarian,> 100 µM
same,TGI,HT29 colon,> 100 µM
same,TGI,HCT-15 colon,> 100 µM
same,TGI,SR leukemia,> 100 µM
same,TGI,RXF 393 renal,> 100 µM
same,TGI,DU-145 prostate,> 100 µM
same,TGI,MCF7 breast,> 100 µM
same,TGI,OVCAR-4 ovarian,> 100 µM
same,TGI,SF-295 CNS,> 100 µM
same,TGI,786-0 renal,> 100 µM
same,TGI,HCT-116 colon,> 100 µM
same,TGI,HOP-62 NSCLC,> 100 µM
same,TGI,EKVX NSCLC,> 100 µM
same,TGI,NCI-H460 lung,> 100 µM
same,TGI,UACC-62 melanoma,> 100 µM
same,TGI,PC-3 prostate,> 100 µM
same,TGI,MOLT-4 leukemia,> 100 µM
same,TGI,SW-620 colon,> 100 µM
